Results on two molecules are retold here after ChEMBL document CHEMBL4725259 (Bioorg Med Chem, 2020).

Calls of active or inactive are those of the source. No cut-off for these calls is given here.

What all share (format): cell-based
Experiment [1] deals with T1, 5-hydroxytryptamine receptor 2C (Homo sapiens, UniProt P28335).
T1 sequence (P28335 whole entry): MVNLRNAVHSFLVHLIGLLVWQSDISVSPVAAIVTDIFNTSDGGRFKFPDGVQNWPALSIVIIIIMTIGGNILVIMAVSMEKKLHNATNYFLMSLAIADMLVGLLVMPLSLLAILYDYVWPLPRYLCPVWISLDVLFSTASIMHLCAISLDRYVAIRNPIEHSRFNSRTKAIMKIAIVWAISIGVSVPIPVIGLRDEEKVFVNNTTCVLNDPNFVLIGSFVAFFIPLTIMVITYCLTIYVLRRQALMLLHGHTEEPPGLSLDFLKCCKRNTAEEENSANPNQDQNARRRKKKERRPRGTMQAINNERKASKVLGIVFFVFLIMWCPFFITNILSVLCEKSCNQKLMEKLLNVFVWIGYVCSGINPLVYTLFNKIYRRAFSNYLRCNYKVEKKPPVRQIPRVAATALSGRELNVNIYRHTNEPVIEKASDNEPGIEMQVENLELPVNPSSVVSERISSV
The experiment in a line: Antagonist activity at HTR2C in human U2OS cells by PathHunter beta-arrestin assay.

Experiment [2] concerns the target C-X-C chemokine receptor type 4 (Homo sapiens, UniProt P61073). The experiment in a line: Antagonist activity at human CXCR4 expressed in mouse C2C12 cells by PathHunter beta-arrestin assay.
The target of experiment [3] is Vasopressin V1a receptor (Homo sapiens) (UniProt P37288). The experiment in a line: Antagonist activity at AVPR1A in human U2OS cells at 20 uM by PathHunter beta-arrestin assay. Particulars: filed as antagonist.
Sequence of Vasopressin V1a receptor (Homo sapiens) (P37288 whole entry, looked up): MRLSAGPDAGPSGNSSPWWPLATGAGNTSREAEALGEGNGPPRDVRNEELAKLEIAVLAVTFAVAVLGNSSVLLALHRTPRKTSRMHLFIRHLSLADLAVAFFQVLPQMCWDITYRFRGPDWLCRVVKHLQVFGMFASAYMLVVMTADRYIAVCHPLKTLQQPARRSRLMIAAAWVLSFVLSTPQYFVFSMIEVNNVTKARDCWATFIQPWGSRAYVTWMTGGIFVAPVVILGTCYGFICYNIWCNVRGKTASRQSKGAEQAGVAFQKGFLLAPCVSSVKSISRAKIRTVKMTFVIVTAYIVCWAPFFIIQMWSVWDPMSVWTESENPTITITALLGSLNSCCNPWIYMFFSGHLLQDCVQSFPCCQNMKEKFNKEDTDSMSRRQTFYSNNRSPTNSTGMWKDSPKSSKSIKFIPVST

Sequence of C-X-C chemokine receptor type 4 (P61073 whole entry): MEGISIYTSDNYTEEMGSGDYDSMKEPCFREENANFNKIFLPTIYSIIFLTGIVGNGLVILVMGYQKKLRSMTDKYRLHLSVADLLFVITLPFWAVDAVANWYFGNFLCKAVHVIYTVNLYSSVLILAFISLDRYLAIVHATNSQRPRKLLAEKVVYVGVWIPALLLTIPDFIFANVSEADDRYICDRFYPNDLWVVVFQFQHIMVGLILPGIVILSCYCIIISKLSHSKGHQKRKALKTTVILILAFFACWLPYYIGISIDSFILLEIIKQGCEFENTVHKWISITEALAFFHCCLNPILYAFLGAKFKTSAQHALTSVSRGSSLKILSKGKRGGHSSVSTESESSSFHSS

What is called IC50 is the concentration needed to halve the response being measured. Regarding `COC(=O)[C@@H]1[C@H]2C[C@@H](c3[nH]c4ccccc4c3CCn3cc(-c4cccc(Cl)c4)nn3)N(C#N)C[C@@H]2CC[C@@H]1O`, the results for the concentration for half-maximal inhibition (IC50) in experiment [1] and in experiment [2] were 0.18 µM and 7.94 µM, respectively.

As to `COC(=O)[C@@H]1[C@H]2C[C@@H]3N(CC[C@@]34C(=O)N(Cc3cccc(OC)c3)c3ccccc34)C[C@@H]2CC[C@@H]1OCc1cccc(OC)c1`, in experiment [3], the inhibition result was “Active”.
